A word on the IC50: it is the point on the concentration scale where inhibition reaches its midpoint. A high value points to weaker potency.

The target of test [1] is T1, hNaV1.7 channel (Homo sapiens, UniProt Q15858).
T1 construct: expressed in transfected cells
As to the kind of experiment: Automated patch-clamp block of hNaV1.7 peak Na+ current in CHO cells. The following applies: for IC50: CHO cells stably expressing hNaV1.7, SyncroPatch 384 PE whole-cell, holding -100 mV, -10 mV test pulse 50 ms every 5 s, room temperature 18-22°C, 0.3% BSA, steady state or end of 15-min application, mean, S.E.M. and n cells; for hNaV1.7 IC50 versus WT: ratio of analogue mean IC50 to HwTx-IV WT mean IC50 on hNaV1.7. It is filed as cell-based. The procedure:
(§1) CHO cells stably expressing the hNaV1.7 channel subtype were cultured in Dulbecco’s Modified Eagle’s Medium F-12 (DMEM/F12) supplemented with 10% fetal bovine serum, 2 mM glutamine, 200 μg/ml hygromycine B, 10 U/ml penicillin and 10 μg/ml streptomycin (Gibco, Grand Island, NY). HEK-293 cells stably expressing the hNaV1.6 channel subtype were cultured in Dulbecco’s Modified Eagle’s Medium (DMEM) supplemented with 10% fetal calf serum, 1 mM pyruvic acid, 4.5 g/L glucose, 2 mM glutamine, 800 μg/ml G418, 10 U/ml penicillin and 10 μg/ml streptomycin (Gibco, Grand Island, NY). All cell lines were incubated at 37°C in a 5% CO2 atmosphere. For electrophysiological recordings, cells were detached with trypsin, and floating single cells were diluted (∼300,000 cells/ml) in an extracellular solution containing (in mM): 140 NaCl, 4 KCl, 2 CaCl2, 1 MgCl2, 5 glucose and 10 HEPES (pH 7.4, osmolarity 298 mOsm), that was used throughout the experiments.
HwTx-IV analogues were investigated on CHO cells expressing hNav1.7 channel and HEK-293 cells expressing hNaV1.6 channel using the automated patch-clamp system from Nanion (SyncroPatch 384 PE; München, Germany). Chips with single-hole and high-resistance (∼6–7 MΩ) were used for both cell lines. Voltage pulses and whole-cell recordings were achieved using the PatchControl384 v1.5.2 software (Nanion) and the Biomek v1.0 interface (Beckman Coulter). Prior to recordings, dissociated cells were shaken at 200 RPM in a cell hotel reservoir at 10°C. After cell catching, sealing, whole-cell formation, liquid application, recording, and data acquisition were all performed sequentially and automatically. The intracellular solution contained (in mM): 110 CsF, 10 CsCl, 10 NaCl, 1 MgCl2, 1 CaCl2, 10 EGTA and 10 HEPES (pH 7.2, osmolarity 280 mOsm), and the extracellular solution was as described above. Whole-cell experiments were done at −100 mV holding potential and at room temperature (18–22°C), while currents triggered at either −10 or 0 mV test potential were sampled at 20 kHz. Stimulation frequency was set at 0.2 Hz. Each HwTx-IV analogue was prepared at various concentrations in the extracellular solution, itself supplemented with 0.3% of bovine serum albumin (BSA), also added in the control solution. […] Compound solutions were diluted 3 times in the patch-clamp recording well by adding 30–60 μl external solution, to reach the final reported concentration and the test volume of 90 μl. For establishing dose-response curves, the compounds were tested at a test potential of either −10 or 0 mV for 50 ms with a pulse every 5 s. Percentages of current inhibition were measured at steady-state of blockage or at the end of a 15-min application time.
On the technique in general: In patch-clamp work, channel activity is measured electrically.

Test [2] has as its target T2, hNaV1.6 channel (Homo sapiens, UniProt Q9UQD0).
T2 construct: expressed in transfected cells
In words: Automated patch-clamp block of hNaV1.6 peak Na+ current in HEK-293 cells. Type of test: cell-based. As to conditions: for IC50: HEK-293 cells stably expressing hNaV1.6, SyncroPatch 384 PE whole-cell, holding -100 mV, 0 mV test pulse 50 ms every 5 s, room temperature 18-22°C, 0.3% BSA, steady state or end of 15-min application, mean, S.E.M. and n cells; for hNaV1.6 IC50 versus WT: ratio of analogue mean IC50 to HwTx-IV WT mean IC50 on hNaV1.6. The procedure:
as §1
HwTx-IV analogues were investigated on CHO cells expressing hNav1.7 channel and HEK-293 cells expressing hNaV1.6 channel using the automated patch-clamp system from Nanion (SyncroPatch 384 PE; München, Germany). Chips with single-hole and high-resistance (∼6–7 MΩ) were used for both cell lines. Voltage pulses and whole-cell recordings were achieved using the PatchControl384 v1.5.2 software (Nanion) and the Biomek v1.0 interface (Beckman Coulter). Prior to recordings, dissociated cells were shaken at 200 RPM in a cell hotel reservoir at 10°C. After cell catching, sealing, whole-cell formation, liquid application, recording, and data acquisition were all performed sequentially and automatically. The intracellular solution contained (in mM): 110 CsF, 10 CsCl, 10 NaCl, 1 MgCl2, 1 CaCl2, 10 EGTA and 10 HEPES (pH 7.2, osmolarity 280 mOsm), and the extracellular solution was as described above. Whole-cell experiments were done at −100 mV holding potential and at room temperature (18–22°C), while currents triggered at either −10 or 0 mV test potential were sampled at 20 kHz. Stimulation frequency was set at 0.2 Hz. Each HwTx-IV analogue was prepared at various concentrations in the extracellular solution, itself supplemented with 0.3% of bovine serum albumin (BSA), also added in the control solution. The peptides were distributed in 384-well microplates according to the number of compounds to be tested (generally four), the concentration range defined from the IC50 of wild-type HwTx-IV, and the number of cells desired for each experimental condition. Compound solutions were diluted 3 times in the patch-clamp recording well by adding 30–60 μl external solution, to reach the final reported concentration and the test volume of 90 μl. For establishing dose-response curves, the compounds were tested at a test potential of either −10 or 0 mV for 50 ms with a pulse every 5 s. Percentages of current inhibition were measured at steady-state of blockage or at the end of a 15-min application time.

T1 sequence (Q15858 whole entry): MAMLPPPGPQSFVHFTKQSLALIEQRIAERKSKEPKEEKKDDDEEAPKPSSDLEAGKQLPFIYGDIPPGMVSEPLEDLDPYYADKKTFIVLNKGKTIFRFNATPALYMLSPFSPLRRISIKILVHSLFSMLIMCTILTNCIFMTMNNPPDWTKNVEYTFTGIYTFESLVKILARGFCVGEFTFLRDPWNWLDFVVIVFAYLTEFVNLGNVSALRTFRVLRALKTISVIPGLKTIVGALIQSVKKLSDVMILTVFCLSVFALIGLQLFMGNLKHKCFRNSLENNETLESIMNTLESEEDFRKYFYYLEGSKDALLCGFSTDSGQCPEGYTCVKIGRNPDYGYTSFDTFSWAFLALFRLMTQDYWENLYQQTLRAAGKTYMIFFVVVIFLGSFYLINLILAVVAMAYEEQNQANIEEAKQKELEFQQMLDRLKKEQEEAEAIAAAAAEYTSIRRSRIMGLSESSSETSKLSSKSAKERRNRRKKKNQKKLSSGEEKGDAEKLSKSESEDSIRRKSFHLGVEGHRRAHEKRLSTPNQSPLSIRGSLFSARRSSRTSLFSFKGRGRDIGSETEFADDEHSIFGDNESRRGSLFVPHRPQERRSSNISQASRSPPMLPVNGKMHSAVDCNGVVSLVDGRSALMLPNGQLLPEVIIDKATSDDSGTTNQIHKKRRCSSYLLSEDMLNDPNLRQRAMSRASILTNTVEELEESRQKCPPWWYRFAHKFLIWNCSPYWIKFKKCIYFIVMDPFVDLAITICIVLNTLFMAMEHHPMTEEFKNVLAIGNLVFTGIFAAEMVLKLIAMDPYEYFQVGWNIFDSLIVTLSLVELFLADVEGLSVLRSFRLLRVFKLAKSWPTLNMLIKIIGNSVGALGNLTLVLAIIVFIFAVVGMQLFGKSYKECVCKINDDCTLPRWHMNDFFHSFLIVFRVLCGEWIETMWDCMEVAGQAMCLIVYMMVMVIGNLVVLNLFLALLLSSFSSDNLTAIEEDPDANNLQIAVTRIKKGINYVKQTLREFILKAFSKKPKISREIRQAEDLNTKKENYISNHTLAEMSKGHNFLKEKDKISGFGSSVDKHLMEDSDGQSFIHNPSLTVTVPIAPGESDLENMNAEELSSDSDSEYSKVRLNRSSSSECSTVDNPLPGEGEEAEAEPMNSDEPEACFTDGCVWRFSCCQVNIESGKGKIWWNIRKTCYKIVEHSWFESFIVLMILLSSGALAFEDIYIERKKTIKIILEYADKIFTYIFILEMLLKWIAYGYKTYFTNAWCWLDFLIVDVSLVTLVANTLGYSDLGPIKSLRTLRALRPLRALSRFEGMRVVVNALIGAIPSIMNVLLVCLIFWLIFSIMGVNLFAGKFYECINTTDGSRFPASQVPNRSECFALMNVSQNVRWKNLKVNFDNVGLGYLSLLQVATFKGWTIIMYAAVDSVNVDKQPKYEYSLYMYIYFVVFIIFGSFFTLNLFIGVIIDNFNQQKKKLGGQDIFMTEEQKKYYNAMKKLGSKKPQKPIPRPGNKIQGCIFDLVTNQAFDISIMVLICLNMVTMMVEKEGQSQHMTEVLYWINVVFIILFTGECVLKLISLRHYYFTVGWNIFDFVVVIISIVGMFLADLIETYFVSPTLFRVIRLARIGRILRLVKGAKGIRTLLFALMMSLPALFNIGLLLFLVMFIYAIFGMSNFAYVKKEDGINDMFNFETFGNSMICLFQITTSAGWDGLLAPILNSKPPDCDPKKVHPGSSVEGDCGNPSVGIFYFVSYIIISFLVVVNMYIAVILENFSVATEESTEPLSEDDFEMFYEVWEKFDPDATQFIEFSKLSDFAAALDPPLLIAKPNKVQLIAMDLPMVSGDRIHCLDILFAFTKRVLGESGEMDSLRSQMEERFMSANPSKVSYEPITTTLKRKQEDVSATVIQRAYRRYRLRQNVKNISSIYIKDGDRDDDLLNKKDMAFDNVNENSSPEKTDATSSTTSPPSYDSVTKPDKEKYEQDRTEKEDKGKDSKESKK
T2 sequence (Q9UQD0 whole entry): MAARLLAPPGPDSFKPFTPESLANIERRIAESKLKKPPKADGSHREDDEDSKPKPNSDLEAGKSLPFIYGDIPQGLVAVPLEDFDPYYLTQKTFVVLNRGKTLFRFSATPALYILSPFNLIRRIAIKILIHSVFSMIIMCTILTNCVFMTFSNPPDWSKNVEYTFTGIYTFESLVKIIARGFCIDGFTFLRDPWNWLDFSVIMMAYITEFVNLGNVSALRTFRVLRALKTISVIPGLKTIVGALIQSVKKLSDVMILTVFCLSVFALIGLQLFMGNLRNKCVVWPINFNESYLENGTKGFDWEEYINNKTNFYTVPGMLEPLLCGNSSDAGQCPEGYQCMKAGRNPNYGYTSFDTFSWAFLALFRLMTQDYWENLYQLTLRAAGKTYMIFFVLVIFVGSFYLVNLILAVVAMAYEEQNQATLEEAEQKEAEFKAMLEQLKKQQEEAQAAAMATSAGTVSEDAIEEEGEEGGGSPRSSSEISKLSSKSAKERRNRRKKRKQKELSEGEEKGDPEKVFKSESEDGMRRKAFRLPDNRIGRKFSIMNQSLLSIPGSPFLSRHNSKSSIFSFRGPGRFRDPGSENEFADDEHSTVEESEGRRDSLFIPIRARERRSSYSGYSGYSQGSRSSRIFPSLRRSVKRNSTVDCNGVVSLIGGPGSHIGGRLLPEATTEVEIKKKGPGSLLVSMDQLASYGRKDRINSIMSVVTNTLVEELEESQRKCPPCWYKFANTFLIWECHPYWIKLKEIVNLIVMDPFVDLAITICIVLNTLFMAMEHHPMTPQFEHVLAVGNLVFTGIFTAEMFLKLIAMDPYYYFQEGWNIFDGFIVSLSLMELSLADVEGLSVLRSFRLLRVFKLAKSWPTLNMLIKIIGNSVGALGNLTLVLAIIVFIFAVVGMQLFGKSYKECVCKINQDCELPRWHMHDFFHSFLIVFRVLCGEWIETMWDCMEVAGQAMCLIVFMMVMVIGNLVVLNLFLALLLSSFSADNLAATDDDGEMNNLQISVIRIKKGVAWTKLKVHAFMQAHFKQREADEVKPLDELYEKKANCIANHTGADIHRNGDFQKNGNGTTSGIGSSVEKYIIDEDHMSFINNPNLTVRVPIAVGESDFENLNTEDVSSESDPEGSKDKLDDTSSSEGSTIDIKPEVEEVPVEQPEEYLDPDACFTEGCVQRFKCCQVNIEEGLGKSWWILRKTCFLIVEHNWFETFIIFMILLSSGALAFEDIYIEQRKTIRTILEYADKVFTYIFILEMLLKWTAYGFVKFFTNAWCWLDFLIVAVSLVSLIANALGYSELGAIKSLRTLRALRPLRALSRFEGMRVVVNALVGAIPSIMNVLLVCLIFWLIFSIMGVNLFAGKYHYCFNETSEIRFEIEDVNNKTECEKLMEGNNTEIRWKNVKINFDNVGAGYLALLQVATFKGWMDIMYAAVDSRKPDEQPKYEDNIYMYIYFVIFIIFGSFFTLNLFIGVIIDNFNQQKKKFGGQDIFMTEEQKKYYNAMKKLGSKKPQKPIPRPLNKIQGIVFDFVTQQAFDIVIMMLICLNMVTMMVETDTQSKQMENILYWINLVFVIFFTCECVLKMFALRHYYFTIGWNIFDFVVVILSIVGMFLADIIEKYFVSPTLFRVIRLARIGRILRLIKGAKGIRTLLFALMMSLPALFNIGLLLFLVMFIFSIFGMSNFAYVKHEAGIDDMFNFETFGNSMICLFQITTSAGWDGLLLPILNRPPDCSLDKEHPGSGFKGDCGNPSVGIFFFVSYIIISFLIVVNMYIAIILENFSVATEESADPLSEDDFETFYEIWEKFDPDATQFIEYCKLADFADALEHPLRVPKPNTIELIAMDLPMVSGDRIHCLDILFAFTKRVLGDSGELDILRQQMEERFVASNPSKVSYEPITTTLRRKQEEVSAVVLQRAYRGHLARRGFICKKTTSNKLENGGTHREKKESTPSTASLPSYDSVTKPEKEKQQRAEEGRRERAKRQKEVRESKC

Turning to `CC[C@H](C)[C@H](NC(=O)[C@H](CCC(N)=O)NC(=O)[C@H](Cc1ccc(O)cc1)NC(=O)[C@H](CCCCN)NC(=O)[C@@H]1CSSC[C@@H]2NC(=O)[C@H](CCC(N)=O)NC(=O)[C@H](CC(=O)O)NC(=O)[C@H](CC(N)=O)NC(=O)[C@H](CO)NC(=O)[C@@H]3CCCN3C(=O)[C@H](CC(N)=O)NC(=O)[C@@H]3CSSC[C@H](NC(=O)[C@H](C(C)C)NC(=O)[C@H](CC(C)C)NC(=O)[C@H](CCCCN)NC(=O)[C@H](CO)NC(=O)[C@H](CO)NC(=O)[C@H](CCCCN)NC(=O)[C@H](CSSC[C@H](NC(=O)[C@@H](N)CCC(=O)O)C(=O)N[C@@H](CC(C)C)C(=O)N[C@@H](CCC(=O)O)C(=O)N[C@@H]([C@@H](C)CC)C(=O)N[C@@H](Cc4ccccc4)C(=O)N[C@@H](CCCCN)C(=O)N[C@@H](C)C(=O)N3)NC2=O)C(=O)N[C@@H](CO)C(=O)N[C@@H](CCCNC(=N)N)C(=O)N[C@@H](CCCCN)C(=O)N[C@@H]([C@@H](C)O)C(=O)N[C@@H](CCCNC(=N)N)C(=O)N[C@@H](Cc2c[nH]c3ccccc23)C(=O)N1)C(=O)O` [HwTx-IV CterCOOH], in test [1], the half-maximal inhibitory concentration (IC50) turned out to be 176 nM and the “hNaV1.7 IC50 versus WT” value is on record as 17.81. In test [2], the IC50 turned out to be 1230 nM and the “hNaV1.6 IC50 versus WT” value turned out to be 5.43.
For `CC[C@H](C)[C@H](NC(=O)[C@H](CCC(N)=O)NC(=O)[C@H](Cc1ccc(O)cc1)NC(=O)[C@H](CCCCN)NC(=O)[C@@H]1CSSC[C@@H]2NC(=O)[C@H](CCC(N)=O)NC(=O)[C@H](CC(=O)O)NC(=O)[C@H](CC(N)=O)NC(=O)[C@H](CO)NC(=O)[C@@H]3CCCN3C(=O)[C@H](CC(N)=O)NC(=O)[C@@H]3CSSC[C@H](NC(=O)[C@H](C(C)C)NC(=O)[C@H](CC(C)C)NC(=O)[C@H](CCCCN)NC(=O)[C@H](CO)NC(=O)[C@H](CO)NC(=O)[C@H](C)NC(=O)[C@H](CSSC[C@H](NC(=O)CN)C(=O)N[C@@H](CC(C)C)C(=O)NCC(=O)N[C@@H]([C@@H](C)CC)C(=O)N[C@@H](Cc4ccccc4)C(=O)N[C@@H](CCCCN)C(=O)N[C@@H](C)C(=O)N3)NC2=O)C(=O)N[C@@H](CO)C(=O)N[C@@H](CCCNC(=N)N)C(=O)N[C@@H](CCCCN)C(=O)N[C@@H]([C@@H](C)O)C(=O)N[C@@H](CCCNC(=N)N)C(=O)N[C@@H](Cc2c[nH]c3ccccc23)C(=O)N1)C(N)=O` [HwTx-IV E^1G/E^4G/K^18A], in that order: 0.8 nM, 0.08, 4.9 nM and 0.02.
On to `CC[C@H](C)[C@H](NC(=O)[C@H](CCC(N)=O)NC(=O)[C@H](Cc1ccc(O)cc1)NC(=O)[C@H](CCCCN)NC(=O)[C@@H]1CSSC[C@@H]2NC(=O)[C@H](CCC(N)=O)NC(=O)[C@H](CC(=O)O)NC(=O)[C@H](CC(N)=O)NC(=O)[C@H](CO)NC(=O)[C@@H]3CCCN3C(=O)[C@H](CC(N)=O)NC(=O)[C@@H]3CSSC[C@H](NC(=O)[C@H](C(C)C)NC(=O)[C@H](CC(C)C)NC(=O)[C@H](CCCCN)NC(=O)[C@H](CO)NC(=O)[C@H](CO)NC(=O)[C@H](CCCCN)NC(=O)[C@H](CSSC[C@H](NC(=O)CN)C(=O)N[C@@H](CC(C)C)C(=O)NCC(=O)N[C@@H]([C@@H](C)CC)C(=O)N[C@@H](Cc4ccccc4)C(=O)N[C@@H](CCCCN)C(=O)N[C@@H](C)C(=O)N3)NC2=O)C(=O)N[C@@H](CO)C(=O)N[C@@H](CCCNC(=N)N)C(=O)N[C@@H](CCCCN)C(=O)N[C@@H]([C@@H](C)O)C(=O)N[C@@H](CCCNC(=N)N)C(=O)N[C@@H](Cc2c[nH]c3ccccc23)C(=O)N1)C(N)=O` [HwTx-IV E^1G/E^4G], for which, in test [1], the IC50 worked out at 2 nM and the “hNaV1.7 IC50 versus WT” value is reported as 0.20. In test [1] (inverse ratio of the mean IC50 values on hNaV1.7 (CHO) and hNaV1.6 (HEK-293) of Table 1), the hNaV1.7/hNaV1.6 selectivity ratio result is reported as “less than 2”. Moreover, in test [2], half-maximal inhibition (IC50) required 3.7 nM and the “hNaV1.6 IC50 versus WT” value was 0.02.
Turning to `CC[C@H](C)[C@H](NC(=O)[C@H](CCC(N)=O)NC(=O)[C@H](Cc1ccc(O)cc1)NC(=O)[C@H](CCCCN)NC(=O)[C@@H]1CSSC[C@@H]2NC(=O)[C@H](CCC(N)=O)NC(=O)[C@H](CC(=O)O)NC(=O)[C@H](CC(N)=O)NC(=O)[C@H](CO)NC(=O)[C@@H]3CCCN3C(=O)[C@H](CC(N)=O)NC(=O)[C@@H]3CSSC[C@H](NC(=O)[C@H](C(C)C)NC(=O)[C@H](CC(C)C)NC(=O)[C@H](CCCCN)NC(=O)[C@H](CO)NC(=O)[C@H](CO)NC(=O)[C@H](CCCCN)NC(=O)[C@H](CSSC[C@H](NC(=O)[C@@H](N)CCC(=O)O)C(=O)N[C@@H](CC(C)C)C(=O)N[C@@H](CCC(=O)O)C(=O)N[C@@H]([C@@H](C)CC)C(=O)N[C@@H](Cc4ccccc4)C(=O)N[C@@H](CCCCN)C(=O)N[C@@H](C)C(=O)N3)NC2=O)C(=O)N[C@@H](CO)C(=O)N[C@@H](CCCNC(=N)N)C(=O)N[C@@H](CCCCN)C(=O)N[C@@H](Cc2c[nH]c3ccccc23)C(=O)N[C@@H](CCCNC(=N)N)C(=O)N[C@@H](Cc2c[nH]c3ccccc23)C(=O)N1)C(N)=O` [HwTx-IV T^28W], in test [1], the half-maximal inhibitory concentration (IC50) turned out to be 114 nM and the “hNaV1.7 IC50 versus WT” value was 11.53.

Values taken from paper PMC8722715 (Frontiers in Cell and Developmental Biology, 2021).
